Data published in the OligoGym collection.
HELM strings list units from the 5' end as sugar, base in round brackets, then linkage (d deoxyribose, r ribose, m 2'-O-methyl, p phosphodiester). Strings are as the collection lists them; they lack the last nucleoside at the 3' end of the tested compound. [moe] = 2'-O-(2-methoxyethyl) (MOE); [sp] = phosphorothioate linkage; [m5C] = 5-methylcytosine

Biological target: GFAP
Test: mouse, dose not given
Conditions: ASO

Row | Substance | 3 h FOB score
1 | RNA1{[moe](A)[sp].[moe](G)p.[moe](G)p.[moe]([m5C])p.[moe](T)[sp].d(T)[sp].d(T)[sp].d(T)[sp].d(G)[sp].d(A)[sp].d(G)[sp].d(A)[sp].d(T)[sp].d(A)[sp].d(T)[sp].[moe]([m5C])p.[moe](T)p.[moe](T)[sp].[moe](G)}$$$$ (last 3' nucleoside missing) | 6 score 0-7
2 | RNA1{[moe](G)[sp].[moe](T)p.[moe](G)p.[moe]([m5C])p.[moe](T)[sp].d(G)[sp].d([m5C])[sp].d(T)[sp].d(G)[sp].d([m5C])[sp].d([m5C])[sp].d(A)[sp].d(G)[sp].d(A)[sp].d(G)[sp].[moe](T)p.[moe]([m5C])p.[moe]([m5C])[sp].[moe](T)}$$$$ (last 3' nucleoside missing) | 6 score 0-7
3 | RNA1{[moe](G)[sp].[moe](A)p.[moe](A)p.[moe](T)p.[moe]([m5C])[sp].d(A)[sp].d(T)[sp].d(T)[sp].d(T)[sp].d([m5C])[sp].d(A)[sp].d(G)[sp].d(G)[sp].d(G)[sp].d([m5C])[sp].[moe]([m5C])p.[moe](A)p.[moe](A)[sp].[moe](T)}$$$$ (last 3' nucleoside missing) | 6 score 0-7
4 | RNA1{[moe](T)[sp].[moe](T)p.[moe](T)p.[moe](G)p.[moe](A)[sp].d(G)[sp].d(A)[sp].d(T)[sp].d(A)[sp].d(T)[sp].d([m5C])[sp].d(T)[sp].d(T)[sp].[moe](G)p.[moe](T)p.[moe](G)[sp].[moe](A)}$$$$ (last 3' nucleoside missing) | 3 score 0-7
5 | RNA1{[moe](T)[sp].[moe]([m5C])p.[moe](T)p.[moe](T)p.[moe](T)[sp].d(A)[sp].d(T)[sp].d(T)[sp].d(T)[sp].d(T)[sp].d(T)[sp].d([m5C])[sp].d([m5C])[sp].[moe](T)p.[moe]([m5C])p.[moe](A)[sp].[moe](G)}$$$$ (last 3' nucleoside missing) | 1 score 0-7
6 | RNA1{[moe](A)[sp].[moe]([m5C])p.[moe](G)p.[moe](T)p.d([m5C])[sp].d(A)[sp].d([m5C])[sp].d(A)[sp].d(T)[sp].d(T)[sp].d([m5C])[sp].d(A)[sp].d([m5C])[sp].d(T)[sp].[moe](A)p.[moe](A)p.[moe](T)p.[moe](A)[sp].[moe](T)}$$$$ (last 3' nucleoside missing) | 0 score 0-7
7 | RNA1{[moe](G)[sp].[moe](T)p.[moe](G)p.[moe](G)p.[moe](T)p.d([m5C])[sp].d([m5C])[sp].d(T)[sp].d(A)[sp].d(A)[sp].d(A)[sp].d(T)[sp].d(A)[sp].d(T)[sp].d(T)[sp].[moe]([m5C])p.[moe](T)p.[moe](A)[sp].[moe](G)}$$$$ (last 3' nucleoside missing) | 1 score 0-7
8 | RNA1{[moe](A)[sp].[moe](G)p.[moe](A)p.[moe](G)p.d(T)[sp].d(G)[sp].d(T)[sp].d(G)[sp].d(T)[sp].d(A)[sp].d(T)[sp].d(T)[sp].d(A)[sp].d(G)[sp].[moe](G)p.[moe](A)p.[moe](T)p.[moe]([m5C])[sp].[moe]([m5C])}$$$$ (last 3' nucleoside missing) | 5 score 0-7
9 | RNA1{[moe](G)[sp].[moe](A)p.[moe]([m5C])p.[moe](T)p.[moe](A)[sp].d(T)[sp].d([m5C])[sp].d(T)[sp].d(A)[sp].d(G)[sp].d(G)[sp].d(A)[sp].d(T)[sp].d(T)[sp].d(T)[sp].[moe](G)p.[moe](G)p.[moe]([m5C])[sp].[moe](A)}$$$$ (last 3' nucleoside missing) | 5 score 0-7
10 | RNA1{[moe](G)[sp].[moe](G)p.[moe]([m5C])p.[moe](T)p.[moe]([m5C])[sp].d(T)[sp].d([m5C])[sp].d(T)[sp].d([m5C])[sp].d(A)[sp].d(T)[sp].d([m5C])[sp].d(T)[sp].d(G)[sp].d(T)[sp].[moe]([m5C])p.[moe](A)p.[moe](A)[sp].[moe](A)}$$$$ (last 3' nucleoside missing) | 4 score 0-7
11 | RNA1{[moe]([m5C])[sp].[moe](A)p.[moe]([m5C])p.[moe](A)p.[moe](T)[sp].d(T)[sp].d([m5C])[sp].d(A)[sp].d([m5C])[sp].d(T)[sp].d(A)[sp].d(A)[sp].d(T)[sp].[moe](A)p.[moe](T)p.[moe](T)[sp].[moe](T)}$$$$ (last 3' nucleoside missing) | 0 score 0-7
12 | RNA1{[moe]([m5C])[sp].[moe](G)p.[moe](T)p.[moe]([m5C])p.d(A)[sp].d([m5C])[sp].d(A)[sp].d(T)[sp].d(T)[sp].d([m5C])[sp].d(A)[sp].d([m5C])[sp].d(T)[sp].d(A)[sp].[moe](A)p.[moe](T)p.[moe](A)p.[moe](T)[sp].[moe](T)}$$$$ (last 3' nucleoside missing) | 0 score 0-7
13 | RNA1{[moe](A)[sp].[moe](G)p.[moe]([m5C])p.[moe]([m5C])p.[moe]([m5C])[sp].d([m5C])[sp].d(A)[sp].d([m5C])[sp].d([m5C])[sp].d(T)[sp].d(A)[sp].d(G)[sp].d(A)[sp].d(A)[sp].d(G)[sp].[moe](T)p.[moe](A)p.[moe]([m5C])[sp].[moe]([m5C])}$$$$ (last 3' nucleoside missing) | 2 score 0-7
14 | RNA1{[moe]([m5C])[sp].[moe]([m5C])p.[moe](T)p.[moe](G)p.[moe](T)p.d(G)[sp].d(A)[sp].d([m5C])[sp].d(T)[sp].d(A)[sp].d(T)[sp].d([m5C])[sp].d(T)[sp].d(A)[sp].d(G)[sp].[moe](G)p.[moe](A)p.[moe](T)[sp].[moe](T)}$$$$ (last 3' nucleoside missing) | 2 score 0-7
15 | RNA1{[moe](T)[sp].[moe](G)p.[moe](T)p.[moe](G)p.[moe](T)p.[moe](A)p.d(T)[sp].d(T)[sp].d(A)[sp].d(G)[sp].d(G)[sp].d(A)[sp].d(T)[sp].d([m5C])[sp].d([m5C])[sp].d([m5C])[sp].[moe](A)p.[moe](T)[sp].[moe]([m5C])}$$$$ (last 3' nucleoside missing) | 3 score 0-7
16 | RNA1{[moe](G)[sp].[moe](G)p.[moe]([m5C])p.[moe](A)p.d(G)[sp].d(T)[sp].d(A)[sp].d(T)[sp].d(T)[sp].d(A)[sp].d([m5C])[sp].d([m5C])[sp].d(T)[sp].d([m5C])[sp].[moe](T)p.[moe](A)p.[moe]([m5C])p.[moe](T)[sp].[moe](A)}$$$$ (last 3' nucleoside missing) | 3 score 0-7
17 | RNA1{[moe]([m5C])[sp].[moe]([m5C])p.[moe](T)p.[moe](G)p.[moe](T)p.[moe](G)p.d(A)[sp].d([m5C])[sp].d(T)[sp].d(A)[sp].d(T)[sp].d([m5C])[sp].d(T)[sp].d(A)[sp].d(G)[sp].d(G)[sp].[moe](A)p.[moe](T)[sp].[moe](T)}$$$$ (last 3' nucleoside missing) | 1 score 0-7
18 | RNA1{[moe](A)[sp].[moe]([m5C])p.[moe](A)p.[moe](T)p.d(T)[sp].d([m5C])[sp].d(A)[sp].d([m5C])[sp].d(T)[sp].d(A)[sp].d(A)[sp].d(T)[sp].d(A)[sp].d(T)[sp].[moe](T)p.[moe](T)p.[moe](A)p.[moe](A)[sp].[moe]([m5C])}$$$$ (last 3' nucleoside missing) | 0 score 0-7
19 | RNA1{[moe]([m5C])[sp].[moe](A)p.[moe](G)p.[moe]([m5C])p.d(A)[sp].d(T)[sp].d(T)[sp].d(T)[sp].d(G)[sp].d(T)[sp].d([m5C])[sp].d(T)[sp].d(T)[sp].d(T)[sp].[moe](A)p.[moe](T)p.[moe](T)p.[moe](T)[sp].[moe](T)}$$$$ (last 3' nucleoside missing) | 2 score 0-7
20 | RNA1{[moe](G)[sp].[moe](G)p.[moe]([m5C])p.[moe](A)p.[moe](A)[sp].d([m5C])[sp].d(A)[sp].d(G)[sp].d(T)[sp].d(T)[sp].d(T)[sp].d([m5C])[sp].d([m5C])[sp].d(A)[sp].d(T)[sp].[moe](A)p.[moe](A)p.[moe]([m5C])[sp].[moe](A)}$$$$ (last 3' nucleoside missing) | 0 score 0-7
21 | RNA1{[moe]([m5C])[sp].[moe](A)p.[moe](G)p.[moe]([m5C])p.[moe](A)p.[moe](T)p.d(T)[sp].d(T)[sp].d(G)[sp].d(T)[sp].d([m5C])[sp].d(T)[sp].d(T)[sp].d(T)[sp].d(A)[sp].d(T)[sp].[moe](T)p.[moe](T)[sp].[moe](T)}$$$$ (last 3' nucleoside missing) | 1 score 0-7
22 | RNA1{[moe](G)[sp].[moe](G)p.[moe](T)p.[moe]([m5C])p.[moe]([m5C])[sp].d(T)[sp].d(A)[sp].d(A)[sp].d(A)[sp].d(T)[sp].d(A)[sp].d(T)[sp].d(T)[sp].d([m5C])[sp].d(T)[sp].[moe](A)p.[moe](G)p.[moe](T)[sp].[moe]([m5C])}$$$$ (last 3' nucleoside missing) | 1 score 0-7
23 | RNA1{[moe](G)[sp].[moe](A)p.[moe](A)p.[moe](T)p.[moe](G)[sp].d(G)[sp].d(T)[sp].d(G)[sp].d(A)[sp].d(T)[sp].d([m5C])[sp].d([m5C])[sp].d(G)[sp].d(G)[sp].d(T)[sp].[moe](T)p.[moe]([m5C])p.[moe](T)[sp].[moe]([m5C])}$$$$ (last 3' nucleoside missing) | 5 score 0-7
24 | RNA1{[moe](G)[sp].[moe](T)p.[moe](G)p.[moe](T)p.[moe](G)[sp].d(T)[sp].d(A)[sp].d(T)[sp].d(T)[sp].d(A)[sp].d(G)[sp].d(G)[sp].d(A)[sp].d(T)[sp].d([m5C])[sp].[moe]([m5C])p.[moe]([m5C])p.[moe](A)[sp].[moe](T)}$$$$ (last 3' nucleoside missing) | 6 score 0-7
25 | RNA1{[moe](A)[sp].[moe]([m5C])p.[moe](T)p.[moe](A)p.[moe](G)p.d(T)[sp].d([m5C])[sp].d(A)[sp].d(G)[sp].d([m5C])[sp].d([m5C])[sp].d(T)[sp].d(G)[sp].d(G)[sp].d(T)[sp].[moe](T)p.[moe](A)p.[moe](G)[sp].[moe]([m5C])}$$$$ (last 3' nucleoside missing) | 2 score 0-7
26 | RNA1{[moe](T)[sp].[moe](G)p.[moe](T)p.[moe]([m5C])p.[moe](T)p.[moe](T)p.d(T)[sp].d(A)[sp].d(T)[sp].d(T)[sp].d(T)[sp].d(T)[sp].d(T)[sp].d([m5C])[sp].d([m5C])[sp].d(T)[sp].[moe]([m5C])p.[moe](A)[sp].[moe](G)}$$$$ (last 3' nucleoside missing) | 1 score 0-7
